For experiment [1], the target named is T1, guinea pig trachea (Cavia porcellus, UniProt Q64077).
T1 construct: The trachea are removed, trimmed of excess tissue and divided into two segments; from tissue; host or cells: guinea pig trachea rings
T1 sequence (Q64077 1-402): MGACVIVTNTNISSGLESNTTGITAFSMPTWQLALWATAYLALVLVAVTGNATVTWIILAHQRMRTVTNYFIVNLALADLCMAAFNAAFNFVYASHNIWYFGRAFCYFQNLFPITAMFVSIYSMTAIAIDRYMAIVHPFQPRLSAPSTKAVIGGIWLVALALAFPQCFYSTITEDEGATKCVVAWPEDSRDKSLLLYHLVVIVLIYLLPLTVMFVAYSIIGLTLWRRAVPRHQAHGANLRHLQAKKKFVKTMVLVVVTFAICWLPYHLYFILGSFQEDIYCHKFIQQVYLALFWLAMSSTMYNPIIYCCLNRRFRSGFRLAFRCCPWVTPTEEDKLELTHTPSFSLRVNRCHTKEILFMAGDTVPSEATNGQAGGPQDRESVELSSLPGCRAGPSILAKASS
As to the kind of experiment: Guinea Pig Assay (Test B), functional assay in guinea pig trachea, antagonism of NKA or [β-ala8]-NKA(4-10) contraction. The format is cell-based. The following applies: -log molar KB, agonist NKA or [β-ala8]-NKA(4-10), 30 min incubation. The procedure:
Guinea Pig Assay (Test B)
The chosen agonist is refered to as AG throughout the description.
Male guinea pigs are killed by a sharp blow to the back of the head. The trachea are removed, trimmed of excess tissue and divided into two segments. Each segment is suspended as a ring between stainless steel stirrups in water-jacketed (37.5° C.) tissue baths containing a physiological salt solution of the following composition (mM): NaCl, 119; KCl 4.6; CaCl2, 1.8; MgCl2, 0.5; NaH2 PO4, 1; NaHCO3, 25; glucose, 11; thiorphan, 0.001; and indomethacin, 0.005; gassed continuously with 95% O2 -%5 CO2. […] Contractile responses are measured on a Grass polygraph via Grass FT-03 force transducers.
Tissues are challenged repetitively with a single concentration of AG (10 nM) with intervening 30 min periods with washing to allow the tension to return to baseline levels. […] Percent inhibition is determined when a Compound produces a statistically significant (p<0.05) reduction of the contraction and is calculated using the second contractile response as 100%.
Potencies of selected Compounds are evaluated by calculating apparent dissociation constants (KB) for each concentration tested using the standard equation: […]
where dose ratio=antilog[(AG -log molar EC50 without Compound)--(AG -log molar EC50 with Compound)]. The KB values may be converted to the negative logarithms and expressed as -log molar KB (i.e. pKB). […]

Experiment [2] addresses T2, human NK2 receptor (Homo sapiens, UniProt P21452).
T2 construct: expressed in transfected cells; host or cells: Mouse Erythroleukemia (MEL) cells
T2 sequence (P21452 1-398): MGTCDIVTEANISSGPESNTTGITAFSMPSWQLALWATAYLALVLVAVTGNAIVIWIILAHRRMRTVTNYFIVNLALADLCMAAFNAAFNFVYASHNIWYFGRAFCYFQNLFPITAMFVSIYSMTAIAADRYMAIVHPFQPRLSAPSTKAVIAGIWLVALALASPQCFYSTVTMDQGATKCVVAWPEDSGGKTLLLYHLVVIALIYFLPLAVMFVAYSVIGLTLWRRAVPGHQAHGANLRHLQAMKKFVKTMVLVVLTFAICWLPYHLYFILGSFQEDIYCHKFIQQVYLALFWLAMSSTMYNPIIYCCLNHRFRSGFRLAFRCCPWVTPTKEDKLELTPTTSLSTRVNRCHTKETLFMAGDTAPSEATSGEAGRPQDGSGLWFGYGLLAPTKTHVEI
Briefly: Neurokinin A (NKA) Receptor-binding Assay (Test A). Conditions: typically found. The text has this:
Neurokinin A (NKA) Receptor-binding Assay (Test A)

Where a name gives a salt, the structure may show the parent alone.

Usually Kb stands for the affinity of an antagonist, worked out from how it opposes an agonist. Low readings indicate a more potent antagonist, high ones a less potent antagonist. Compound `O=C(c1c[nH]nc1-c1ccccc1)C(CCN1CCC(O)(c2ccccc2)CC1)c1ccc(Cl)c(Cl)c1` (centres unmarked) [Example 3, 4-[2-(3,4-Dichlorophenyl)-4-(4-hydroxy-4-phenylpiperidino)butyroyl]-3-phenyl-1H-pyrazole] had a Kb in experiment [1] of 251 nM. The Ki is the equilibrium dissociation constant of an inhibitor or competing ligand from its target. Read a low Ki as tighter binding. Consider `O[C@@H](c1nccn1-c1ccccc1)[C@H](CCN1CCC(O)(c2ccccc2)CC1)c1ccc(Cl)c(Cl)c1` (racemic) [Example 2, 2-[(1RS,2RS)-2-(3,4-Dichlorophenyl)-1-hydroxy-4-(4-hydroxy-4-phenylpiperidino)butyl]-1-phenylimidazole Hydrochloride], for which the Ki in experiment [2] came out at 34 nM.

The values are drawn from patent US5635509A, “Piperidine derivatives useful as neurokinin antagonists” (Zeneca Limited, priority 1994, dated 1997).
